Measurements: patent US9303049B2, “Nanodot and method for manufacturing the same” (National Sun Yat-sen University, priority 2013, dated 2016)

Tests used:
SK-Hep-1 cell [1] = experiment: Bioprobing and bioimaging, fluorescence microscopy of SK-Hep-1 cell; type: cell-based; settings: for fluorescence signal in SK-Hep-1 cell: 48 hours incubation, nanodot solutions 20 mM, different excitation light sources
Experimental: SK-Hep-1 cell was incubated under 37° C. for 12 hours (overnight). Then avidin (purchased from Sigma) was added into the SK-Hep-1 cell to form a cell culture. […] Then the cell was fixed by paraformaldehyde.
SK-Hep-1 cell was incubated under 37° C. for 12 hours (overnight). Then avidin-FITC (purchased from Sigma) was added into the SK-Hep-1 cell to form a cell culture.
SK-Hep-1 cell was incubated under 37° C. for 12 hours (overnight). Then the 3-aminopropyltriethoxysilane nanodot solution (20 mM) prepared in example 4 and the avidin modified 3-aminopropyltriethoxysilane nanodot solution (20 mM) were added into this SK-Hep-1 cell to form two cell cultures respectively. […] Then the cell was fixed by paraformaldehyde. […] Referring to FIG. 10, FIGS. 10(a)-(d) show the SK-Hep-1 cell added with 3-aminopropyltriethoxysilane nanodot solution. FIGS. 10(m)-(p) show the SK-Hep-1 cell added with avidin modified 3-aminopropyltriethoxysilane nanodot solution. […] Therefore, the fluorescence signal of FIGS. 10(b)-(d) and (n)-(p) resulted from the nanodot. In addition, FIGS. 10(i)-(I) show the SK-Hep-1 cell added with avidin-FITC. […] FIGS. 13(a)-(c) show the images of the SK-Hep-1 cell added with 3-aminopropyltriethoxysilane nanodot solution and continuously irradiated with excitation light, wherein FIGS. 13(a)-(c) are the images observed at 0 minutes, 2 minutes and 5 minutes respectively. FIGS. 13(d)-(f) show the images of the SK-Hep-1 cell added with avidin-FITC and continuously irradiated with excitation light, wherein FIGS. 13(d)-(f) are the images observed at 0 minutes, 2 minutes and 5 minutes respectively. FIGS. 13(g)-(i) show the images of the SK-Hep-1 cell added with avidin modified 3-aminopropyltriethoxysilane nanodot solution and continuously irradiated with excitation light, wherein FIGS. 13(g)-(i) are the images observed at 0 minutes, 2 minutes and 5 minutes respectively. […] Therefore, the nanodot has better photo stability.

SK-Hep-1 cell [2] = experiment: Stability measurement of fluorescence under continuous excitation light in SK-Hep-1 cell; type: cell-based; settings: continuously irradiated with excitation light, observed at 2 minutes and 5 minutes versus 0 minutes
Experimental: SK-Hep-1 cell was incubated under 37° C. for 12 hours (overnight). Then the 3-aminopropyltriethoxysilane nanodot solution (20 mM) prepared in example 4 and the avidin modified 3-aminopropyltriethoxysilane nanodot solution (20 mM) were added into this SK-Hep-1 cell to form two cell cultures respectively. […] Then the cell was fixed by paraformaldehyde. […] Referring to FIG. 10, FIGS. 10(a)-(d) show the SK-Hep-1 cell added with 3-aminopropyltriethoxysilane nanodot solution. FIGS. 10(m)-(p) show the SK-Hep-1 cell added with avidin modified 3-aminopropyltriethoxysilane nanodot solution. […] Therefore, the fluorescence signal of FIGS. 10(b)-(d) and (n)-(p) resulted from the nanodot. In addition, FIGS. 10(i)-(I) show the SK-Hep-1 cell added with avidin-FITC. […] FIGS. 13(a)-(c) show the images of the SK-Hep-1 cell added with 3-aminopropyltriethoxysilane nanodot solution and continuously irradiated with excitation light, wherein FIGS. 13(a)-(c) are the images observed at 0 minutes, 2 minutes and 5 minutes respectively. FIGS. 13(d)-(f) show the images of the SK-Hep-1 cell added with avidin-FITC and continuously irradiated with excitation light, wherein FIGS. 13(d)-(f) are the images observed at 0 minutes, 2 minutes and 5 minutes respectively. […]

Substance | fluorescence signal in SK-Hep-1 cell (SK-Hep-1 cell [1]) | effect of avidin modification on entry into cells (SK-Hep-1 cell [1]; FIGS. 10(n)-(p) compared with FIGS. 10(b)-(d), SK-Hep-1 cell, 48 hours) | fluorescence after continuous irradiation (photo stability) (SK-Hep-1 cell [2])
avidin | no fluorescence signal | – | –
avidin modified 3-aminopropyltriethoxysilane nanodot: 3-aminopropyltriethoxysilane nanodot of example 4 modified with avidin | significant multiphoton fluorescence with red, green and blue lights emitted | enhance the efficiency of the nanodot to enter into cells and aggregate in cells | only became slightly weak
avidin-FITC: avidin-FITC purchased from Sigma; FITC is a conventional organic fluorescent dye widely applied in bioimaging | could not emit blue and red fluorescence | – | nearly no fluorescence
